The source of these data is ChEMBL document CHEMBL4715823, “Homogeneous Assay for Target Engagement Utilizing Bioluminescent Thermal Shift” (ACS Med Chem Lett, 2018).

Calls of active or inactive are those of the source. No cut-off for these calls is given here.

The target in assay [1] is Mitogen-activated protein kinase 14 (Homo sapiens) (UniProt Q16539). The settings on record: HeLa, dose 50.0 µM.
Assay [2] has the same target. The note with it: HeLa, dose 50.0 µM. The source holds these as a separate data set.

Chain of Mitogen-activated protein kinase 14 (Homo sapiens) (Q16539 whole entry): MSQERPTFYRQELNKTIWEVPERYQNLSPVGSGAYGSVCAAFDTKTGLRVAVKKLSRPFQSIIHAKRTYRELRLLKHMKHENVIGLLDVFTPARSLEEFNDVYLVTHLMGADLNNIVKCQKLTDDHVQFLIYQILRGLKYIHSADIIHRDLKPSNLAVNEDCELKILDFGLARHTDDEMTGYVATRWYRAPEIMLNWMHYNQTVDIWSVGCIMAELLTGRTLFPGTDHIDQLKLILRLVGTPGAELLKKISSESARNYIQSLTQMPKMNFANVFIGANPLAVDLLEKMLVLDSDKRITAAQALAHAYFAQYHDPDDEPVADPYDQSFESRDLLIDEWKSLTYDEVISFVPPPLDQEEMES

As usually defined, the ΔTm is the change in melting temperature against a reference sample. Take `C/C(O)=C(\C#N)C(=O)Nc1cc(Br)ccc1Br`: the ΔTm in assay [1] is 3.43 °C.

Regarding `Oc1ccc(-c2nc(-c3ccc(F)cc3)c(-c3ccncc3)[nH]2)cc1`, the ΔTm in assay [1] came out at 7.8 °C.

With `Cc1ncc(-c2ccnc(Nc3ccc(S(C)(=O)=O)cc3)n2)n1C(C)C`, the Tm result in assay [2] was “inactive”.

For the compound `CC(C)(C)n1nc(-c2ccc(Cl)cc2)c2c(N)ncnc21`, the ΔTm in assay [1] is 1.17 °C.
